{"source": "patent US20090176696A1", "about": "“Methods And Compositions For Modulating An Immune Response” (priority 2006, published 2009)", "key": {"[1]": {"system": "KLH-specific T cell responses", "test": "Footpad immunisation with KLH (PBS, alum or LPS) with or without TCT; popliteal lymph node cytokines", "format": "in vivo, BALB/c mice", "procedure": "BALB/c mice were injected subcutaneously into the footpad with either PBS alone, KLH (20 μg), KLH adsorbed to alum, KLH+LPS (10 μg) or KLH+TCT (10 or 25 μg), KLH+LPS+TCT or KLH+TCT adsorbed to alum. 5 days later mice were sacrificed and the popiliteal LNs were removed. Single LN cell suspensions were cultured in the presence of increasing concentrations of KLH (2-50 μg/ml) or PMA/CD3 or medium as positive and negative controls respectively. Supernatants were taken 3 days later and tested for IFN-γ, IL-10, IL-4 and IL-5 by ELISA. Results are mean (+/−SD) values for 5 mice per group."}, "[2]": {"system": "Bone marrow-derived dendritic cells (BMDCs)", "test": "Cytokine production (ELISA) by BMDCs pre-treated with TCT, then stimulated with TLR agonists", "format": "cell-based, BALB/c mice"}, "[3]": {"system": "KLH-specific T cell and antibody responses", "test": "TCT injection 6 hours before immunisation with KLH and E. coli heat labile enterotoxin (LT); ex vivo lymph node responses and antibody titres", "format": "in vivo, BALB/c mice", "procedure": "Groups of 5 BALB/c mice were injected subcutaneously into the flank with PBS or TCT (10 μg/mouse) and then immunised with KLH (20 μg/mouse) or KLH with E. coli heat labile enterotoxin (LT) (100 ng/mouse) 6 hours later. The T cell response was assessed 14 days later from local inguinal lymph node cells stimulated with antigen ex vivo.\nLymph node (FIG. 10) cell suspensions were cultured in the presence of various concentrations of KLH (2, 10, 50 μg/ml) and PMA/CD3 or medium were used as positive and negative controls respectively. Supernatants were collected 72 hours later. Concentrations of IFN-gamma, IL-10, IL-4 and IL-5 in supernatants were evaluated by ELISA (FIG. 10). KLH-specific antibody titres were also determined by ELISA (FIG. 11). Results are the mean responses (±SD) for 5 mice assessed individually in triplicate."}, "Bone marrow-derived DCs": {"system": "Bone marrow-derived DCs", "test": "Surface expression of MHC Class II and costimulatory molecules on DCs by immunofluorescence analysis", "format": "cell-based, BALB/c mice", "procedure": "Bone marrow-derived DCs from BALB/c mice were cultured for 6 hours with (i) TCT (10 μg/ml) or medium alone, then stimulated with B. pertussis LPS at (ii) 10 ng/ml and (iii) 100 ng/ml for a further 12 hours and analysed for surface expression of MHC Class II and costimulatory molecules by immunofluorescence analysis with Abs specific for MHC Class II (a), CD86 (b), and ICAM-1 (c). (FIG. 5)."}, "[4]": {"details": "KLH and LPS, co-administration of TCT"}, "[5]": {"details": "KLH in alum, TCT 10 or 25 μg/mouse"}, "[6]": {"details": "KLH in alum, treatment with TCT"}, "[7]": {"details": "co-administration of TCT with KLH in PBS"}, "[8]": {"details": "TCT 10 μg/mouse 6 hours before KLH and LT"}, "[9]": {"details": "TCT 10 μg/mouse 6 hours before KLH with LT"}}}
{"smiles": "CC(=O)NC1C(OC2C3COC(O3)C(NC(C)=O)C2OC(C)C(=O)NC(C)C(=O)NC(CCC(=O)NC(CCCC(N)C(=O)NC(C)C(=O)O)C(=O)O)C(=O)O)OC(CO)C(O)C1O", "note": "(centres unmarked) [TCT, N-acetylglucosaminyl-1,6-anhydro-N-acetylmuramylalanyl-γ-glutamyldiaminopimelylalanine]", "values": [{"measurement": "IFN-γ production promoted with LPS", "setting": "[1]; [4]", "value": "not affected"}, {"measurement": "IL-10 production promoted with LPS", "setting": "[1]; [4]", "value": "not affected"}, {"measurement": "IL-4 response, draining lymph node cells", "setting": "[1]; [5]", "value": "significantly reduced"}, {"measurement": "IL-5 response, draining lymph node cells", "setting": "[1]; [5]", "value": "significantly reduced"}, {"measurement": "IFN-γ production, draining lymph node cells", "setting": "[1]; [6]", "value": "not significantly affected"}, {"measurement": "IL-10 production, draining lymph node cells", "setting": "[1]; [6]", "value": "not significantly affected"}, {"measurement": "IFN-γ response", "setting": "[1]; [7]", "value": "enhanced"}, {"measurement": "IL-10 response", "setting": "[1]; [7]", "value": "enhanced"}, {"measurement": "IL-10 production by dendritic cells in synergy with the TLR4 agonist MPL", "setting": "[2]", "value": "enhances"}, {"measurement": "antigen-specific IFN-gamma production by lymph node cells", "setting": "[3]; [8]", "value": "significantly impaired"}, {"measurement": "antigen-specific IL-4 production by lymph node cells", "setting": "[3]; [8]", "value": "significantly impaired"}, {"measurement": "KLH-specific IL-5 production, lymph node cells", "setting": "[3]; [9]", "value": "reduction"}, {"measurement": "KLH-specific IL-10 production, lymph node cells", "setting": "[3]; [9]", "value": "reduction"}, {"measurement": "antigen-specific IgG1 titres", "setting": "[3]; TCT 6 hours before LT and KLH", "value": "no effect"}, {"measurement": "antigen-specific IgG2a titres", "setting": "[3]; TCT 6 hours before LT and KLH", "value": "no effect"}, {"measurement": "total KLH-specific IgG production", "setting": "[3]; TCT 6 hours before LT and KLH", "value": "no effect"}, {"measurement": "B. pertussis LPS induced expression of the other costimulatory molecules (CD86, ICAM-1)", "setting": "Bone marrow-derived DCs; 6 hours TCT pre-treatment", "value": "did not modulate"}, {"measurement": "MHC Class II expression induced with B. pertussis LPS", "setting": "Bone marrow-derived DCs; LPS 10 or 100 ng/ml, 6 hours TCT pre-treatment", "value": "reduced"}, {"measurement": "MHC Class II expression on DCs", "setting": "Bone marrow-derived DCs; TCT (10 μg/ml) alone", "value": "did not influence"}, {"measurement": "co-stimulatory molecule expression on DCs", "setting": "Bone marrow-derived DCs; TCT (10 μg/ml) alone", "value": "did not influence"}]}
